Bases are written 5' to 3'; sugars and linkages follow in the same order, as letters with counts (s phosphorothioate, o phosphodiester; PS: all linkages phosphorothioate). C may stand for cytosine or 5-methylcytosine; the collection does not tell. l = locked nucleic acid (LNA); d = 2'-deoxy (DNA)
Each sequence was assayed against HIF1A (assay: HeLa, 100 nM transfected, 24 h, mean of 3). Settings: ASO.

Sequence | caspase activation (% of PBS control)
TACTGCCTTCTTA (sugars l3 d8 l2, PS) | 317
GTTACTGCCTTCTTAC (sugars lddllddddddddldl, PS) | 246
TGGCAAGCATCCTGTA (sugars lldldddddddlldll, PS) | 410
TGGCAAGCATCCTGTA (sugars ldlllddddddllldl, PS) | 490
GGCAAGCATCCTG (sugars l1 d2 l1 d7 l2, PS) | 361
TACTGCCTTCTTA (sugars l1 d10 l2, PS) | 130
GTTACTGCCTTCT (sugars l1 d11 l1, PS) | 112
TGGCAAGCATCCTGTA (sugars l1 d1 l3 d8 l3, PS) | 448
GTTACTGCCTTCTTAC (sugars l5 d7 l2 d1 l1, PS) | 515
TGGCAAGCATCCTGTA (sugars l2 d1 l2 d7 l4, PS) | 394

From the OligoGym collection
